As a reminder, the IC50 is the concentration at which inhibition is half-maximal.

The subject of one experiment is STING pathway. Nature of the experiment: IFN β reporter assay (HTRF, 2′3′-cGAMP-stimulated THP1 cells). The following applies: Homo sapiens, THP-1, THP1 cells, 5 μM 2′3′-cGAMP, IFN β secretion inhibition; class symbols; read-out: IFN β reporter activity IC50. It counts as cell-based, human. The procedure: STING pathway deactivation by the compounds described herein was measured using THP1 cells. The THP1 Cells (obtained from ATCC, Cat #TIB-202) were maintained in RPMI-1640 (Gibco, Cat #22400105), 10% FBS, 1% Pen-Strep, 0.05 mM 2-mercaptoethanol. For STING activation, 2′3′-cGAMP (MW 718.38, obtained from Invivogen) was used and prepared in serum-free RPMI-1640 media. Growth media: RPMI-1640 (HEPES, glutamine), 10% FBS, 1% Pen-Strep, 0.05 mM 2-mercaptoethanol. Assay media: RPMI-1640 (HEPES, glutamine), 0.5% FBS. 2′3′-cGAMP: Dissolve 2′3′-cGAMP to 10 mM stock in H2O.
The cells were prepared and seeded at 100K, 90 μL/well with assay media in cell culture plate (Greiner 655180). The compounds were added in 96-well tissue culture plates by Tecan D300e for a final concentration of 0.00137-3 μM.
Lipo2000/3000 and 2′3′-cGAMP stock solutions were diluted respectively in serum-free RPMI-1640 media. The diluted 2′3′-cGAMP and Lipo (V/V=1:1) were mixed and stood for 15 min at room temperature. 10 μL 2,3-cGAMP/Lipofectamine (10×) was transferred to the 96-well assay plate with a final 2′3′-cGAMP concentration of 5 μM. The cell plates were centrifuged at 1000 rpm for 5 min after incubating at 37° C., 5% CO2 overnight.
All reagents (human IFN beta kit, Cisbio 62HIFNBPEG) were warmed to room temperature for at least 30 min before the assay. The instructions of the kit were followed to prepare the detection media. 14 μL of cell supernatants was transferred into their dedicated wells in 384-well plate. Then 2 μL of the activation reagent solution and 4 μL of the mixed antibody solution were added to all wells. The plate was sealed and incubated for 3 h at room temperature.
The HTRF signal was read in Envision (PerkinElmer). IFN β reporter activity was then measured. The calculated ratio is the signal at 665 nm/signal at 615 nm. IC50 values are calculated by using standard methods known in the art.
Background: Reporter assays use an easily measured gene product as a stand-in for the process of interest.
`Cn1cc(C(=O)Nc2c[nH]c3ccc(C#N)cc23)c2cc(Cl)c(C3=CCOCC3)cc21` [Example 55]: the IC50 lay in the range of 50 to 200 nM. Same read-out and setting: with `Cn1cc(C(=O)Nc2c[nH]c3ccc(F)cc23)c2ccc(OCC(F)(F)F)nc21` [Example 74] the figure was 50 to 200 nM; with `O=C(Nc1c[nH]c2ccc(C(F)(F)F)cc12)c1n[nH]c2cc(C(F)(F)F)ccc12` [Example 10], 50 to 200 nM. Still for that read-out and setting: as for `Cn1cc(C(=O)Nc2c[nH]c3ccc(F)cc23)c2cc(F)c(CN3CCCCC3)cc21` [Example 99], the figure is greater than 1000 nM.

With `O=C(Nc1c[nH]c2ccc(F)cc12)c1n[nH]c2ncc(Br)cc12` [Example 7], the IC50 is 50 to 200 nM. On the same count and under the same terms, as for `Cn1cc(C(=O)Nc2c[nH]c3ccc(F)cc23)c2cc(F)c(CNCCC(F)(F)F)cc21` [Example 97, 5-fluoro-N-(5-fluoro-1H-indol-3-yl)-1-methyl-6-[(3,3,3-trifluoropropylamino)methyl]indole-3-carboxamide], the figure is 50 to 200 nM; as for `CS(=O)(=O)c1ccc2c(C(=O)Nc3c[nH]c4ccc(F)cc34)n[nH]c2c1` [Example 13], greater than 1000 nM. On to `Cn1cc(C(=O)Nc2c[nH]c3ccc(S(C)(=O)=O)cc23)c2ccc(C(F)(F)F)cc21` [Example 37], for which the half-maximal inhibitory concentration (IC50) was greater than 1000 nM.

In the case of `Cn1cc(C(=O)Nc2c[nH]c3ccc(C#N)cc23)c2ccc(C3=CCOCC3)cc21` [Example 54], the IC50 fell in the range of 200 to 1000 nM. Still for that read-out and setting: as for `O=C(Nc1c[nH]c2ccccc12)c1n[nH]c2cc(C3CCOCC3)ccc12` [Example 16], the figure is 50 to 200 nM; as for `O=C(Nc1c[nH]c2cc(F)c(F)cc12)c1cnn2cc(Br)ccc12` [Example 59], 200 to 1000 nM. Consider `O=C(Nc1c[nH]c2ccc(F)cc12)c1cnn2cc(Br)ccc12` [Example 24], for which the IC50 was less than 50 nM. On the same count and under the same terms, with `O=C(Nc1c[nH]c2cc(F)c(F)cc12)c1c[nH]c2cc(C(F)(F)F)ccc12` [Example 52] the figure was less than 50 nM. Still for that read-out and setting: as for `Cn1cc(C(=O)Nc2c[nH]c3ccc(F)cc23)c2cc(F)c(C3CCOCC3)cc21` [Example 81], the figure is less than 50 nM. The same measure, in the same setting: as for `Cn1cc(C(=O)Nc2c[nH]c3ccc(F)cc23)c2cc(F)c(CN3CCN(CC(F)(F)F)CC3)cc21` [Example 101], the figure is 50 to 200 nM; as for `C[C@@H](NCc1cc2c(cc1F)c(C(=O)Nc1c[nH]c3ccc(F)cc13)cn2C)C(F)(F)F` [Example 105], less than 50 nM. For `Cn1cc(C(=O)Nc2c[nH]c3ccc(F)cc23)c2cc(F)c(CNC3CCC(F)(F)CC3)cc21` [Example 100], the IC50 fell in the range of 50 to 200 nM. `CN(Cc1ccc2[nH]cc(NC(=O)c3cn(C)c4cc(C(F)(F)F)ccc34)c2c1)C(=O)OC(C)(C)C` [Example 39]: the IC50 is 50 to 200 nM. `O=C(Nc1c[nH]c2cc(F)c(F)cc12)c1n[nH]c2ncc(Br)cc12` [Example 68]: the IC50 is 50 to 200 nM. Turning to `C[C@H]1COCCN1c1cc2c(cc1F)c(C(=O)Nc1c[nH]c3ccc(F)cc13)cn2C` [Example 49], the IC50 lay within 200 to 1000 nM. Same read-out and setting: as for `O=C(Nc1c[nH]c2cc(F)c(F)cc12)c1c[nH]c2ccccc12` [Example 64], the figure is 50 to 200 nM; as for `C[C@H](NCc1cc2c(cc1F)c(C(=O)Nc1c[nH]c3ccc(F)cc13)cn2C)C(F)(F)F` [Example 104], less than 50 nM. Still for that read-out and setting: with `O=C(Nc1c[nH]c2cccc(F)c12)c1n[nH]c2cc(C(F)(F)F)ccc12` [Example 26] the figure was 50 to 200 nM.

Turning to `Cn1cc(C(=O)Nc2c[nH]c3cc(F)c(Cl)cc23)c2cc(F)c(C3CCOCC3)cc21` [Example 48], the IC50 is 50 to 200 nM. On the same count and under the same terms, with `Cn1cc(C(=O)Nc2c[nH]c3ccc(F)cc23)c2cc(F)c(CNCC(F)(F)F)cc21` [Example 91, 5-fluoro-N-(5-fluoro-1H-indol-3-yl)-1-methyl-6-[(2,2,2-trifluoroethylamino)methyl]indole-3-carboxamide] the figure was 50 to 200 nM. On the same count and under the same terms, with `O=C(Nc1c[nH]c2cc(F)c(F)cc12)c1n[nH]c2cc(C(F)(F)F)ccc12` [Example 17] the figure was less than 50 nM; with `Cn1cc(C(=O)Nc2c[nH]c3ccc(F)cc23)c2cc(F)c(CNC(C)(C)C)cc21` [Example 96], greater than 1000 nM; with `Cn1cc(C(=O)Nc2c[nH]c3ccc(F)cc23)c2cc(F)c(CN3CCC(F)(F)CC3)cc21` [Example 98], less than 50 nM. As for `O=C(Nc1c[nH]c2ccc(F)cc12)c1n[nH]c2cc(C3=CCOCC3)ccc12` [Example 29], the IC50 lay within 50 to 200 nM.

In the case of `CN1CCC(c2cc3c(cc2F)c(C(=O)Nc2c[nH]c4ccc(F)cc24)cn3C)CC1` [Example 116, 5-fluoro-N-(5-fluoro-1H-indol-3-yl)-1-methyl-6-(1-methyl-4-piperidyl)indole-3-carboxamide], the concentration for half-maximal inhibition (IC50) is greater than 1000 nM. The same measure, in the same setting: with `Cn1cc(C(=O)Nc2c[nH]c3ccc(C(N)=O)cc23)c2ccc(C(F)(F)F)cc21` [Example 34] the figure was greater than 1000 nM.

Turning to `Cn1cc(C(=O)Nc2c[nH]c3cc(F)c(F)cc23)c2cc(F)c(CNCC(F)(F)F)cc21` [Example 106], the IC50 was less than 50 nM.

`O=C(Nc1c[nH]c2ccc(Br)cc12)c1n[nH]c2cc(C(F)(F)F)ccc12` [Example 15]: the IC50 is less than 50 nM. Still for that read-out and setting: as for `O=C(Nc1c[nH]c2ccc(F)cc12)c1cc2ccc(Br)cn2n1` [Example 57], the figure is less than 50 nM. On the same count and under the same terms, as for `Cn1cc(C(=O)Nc2c[nH]c3ccc(F)cc23)c2cc(F)c(CNCC(F)F)cc21` [Example 103], the figure is 50 to 200 nM; as for `C#Cc1ccc2c(C(=O)Nc3c[nH]c4ccc(F)cc34)n[nH]c2c1` [Example 14], 50 to 200 nM; as for `O=C(O)c1ccc2c(C(=O)Nc3c[nH]c4ccc(F)cc34)n[nH]c2c1` [Example 88, 3-[(5-fluoro-1H-indol-3-yl)carbamoyl]-1H-indazole-6-carboxylic acid], greater than 1000 nM. Same read-out and setting: as for `Cn1cc(C(=O)Nc2c[nH]c3ccc(C(=O)O)cc23)c2ccc(C(F)(F)F)cc21` [Example 87, 3-[[1-methyl-6-(trifluoromethyl)indole-3-carbonyl]amino]-1H-indole-5-carboxylic acid], the figure is greater than 1000 nM. As for `O=C(Nc1c[nH]c2ccc(F)cc12)c1n[nH]c2cc(Oc3ccncc3)ccc12` [Example 62], the IC50 is greater than 1000 nM.

The same experiment, now with this note: Homo sapiens, THP-1, THP1 cells, 5 μM 2′3′-cGAMP, IFN β secretion inhibition; numeric values (comparators); read-out: IFN β reporter activity IC50.
Turning to `O=C(Nc1c[nH]c2cc(F)c(F)cc12)c1nc2ccncc2s1` [Comparator B, reference compound], the IC50 is greater than 3000 nM. On the same count and under the same terms, as for `O=C(Nc1c[nH]c2cc(F)c(F)cc12)c1cnc2[nH]ncc2c1` [Comparator A, reference compound], the figure is greater than 30000 nM.

The experiment is the same for the next values; noted with them: Homo sapiens, THP-1, read-out: IFN β reporter activity IC50.
In the case of `Cn1nc(C(=O)Nc2c[nH]c3ccccc23)c2cc(Br)ccc21` [Example 3], the IC50 is 50 to 200 nM.

As to `N#Cc1ccc2[nH]cc(NC(=O)c3cn(C4CC4)c4nc(O[C@@H]5CCOC5)ccc34)c2c1` [Example 43], the IC50 lay in the range of 200 to 1000 nM. Same read-out and setting: with `O=C(Nc1c[nH]c2ccc(F)cc12)c1cn(C2CNC2)c2cc(C(F)(F)F)ccc12` [Example 113, 1-(azetidin-3-yl)-N-(5-fluoro-1H-indol-3-yl)-6-(trifluoromethyl)indole-3-carboxamide] the figure was greater than 1000 nM. On the same count and under the same terms, as for `CN1CC=C(c2cc3c(cc2F)c(C(=O)Nc2c[nH]c4ccc(F)cc24)cn3C)CC1` [Example 115, 5-fluoro-N-(5-fluoro-1H-indol-3-yl)-1-methyl-6-(1-methyl-3,6-dihydro-2H-pyridin-4-yl)indole-3-carboxamide], the figure is greater than 1000 nM; as for `Cn1cc(C(=O)Nc2c[nH]c3ccc(F)cc23)c2ccc(Cl)cc21` [Example 32], less than 50 nM. The same measure, in the same setting: with `COc1ccc2[nH]cc(NC(=O)c3cn(C)c4cc(C(F)(F)F)ccc34)c2c1` [Example 51] the figure was 50 to 200 nM; with `N#Cc1ccc2[nH]cc(NC(=O)c3cn(C4COC4)c4cc(C5=CCOCC5)c(F)cc34)c2c1` [Example 112, N-(5-cyano-1H-indol-3-yl)-6-(3,6-dihydro-2H-pyran-4-yl)-5-fluoro-1-(oxetan-3-yl)indole-3-carboxamide], 50 to 200 nM. As for `N#Cc1ccc2[nH]cc(NC(=O)c3cn(C4CC4)c4nc(OCC(F)(F)F)ccc34)c2c1` [Example 41], the IC50 is 50 to 200 nM. Same read-out and setting: as for `O=C(Nc1c[nH]c2ccccc12)c1nn(CC2CC2)c2cc(C(F)(F)F)ccc12` [Example 30], the figure is 50 to 200 nM; as for `Cc1[nH]c2ccc(F)cc2c1NC(=O)c1cn(C)c2cc(C(F)(F)F)ccc12` [Comparator C, reference compound], 11000 nM; as for `O=C(Nc1c[nH]c2ccc(F)cc12)c1cn(C2CC2)c2cc(C(F)(F)F)ccc12` [Example 67, 1-cyclopropyl-N-(5-fluoro-1H-indol-3-yl)-6-(trifluoromethyl)indole-3-carboxamide], less than 50 nM.

Source of the values: patent US20240002368A1 (QILU REGOR THERAPEUTICS INC., priority 2020, published 2024).
